Measured values: ChEMBL document CHEMBL5390311, “MAIP: An Open-Source Tool to Enrich High-Throughput Screening Output and Identify Novel, Druglike Molecules with Antimalarial Activity” (ACS Med Chem Lett, 2023)
Values after ≈ are worked out from the molar mass of the structure shown.

Legend:
[1] = tested on: Plasmodium falciparum; assay: Antimalarial activity against Plasmodium falciparum 3D7 assessed as reduction in parasite growth; format: functional, organism-based
[2] = tested on: Plasmodium falciparum; assay: Antimalarial activity against Plasmodium falciparum NF54 assessed as parasite growth inhibition at 2 uM relative to control; format: functional; details: read-out: GI
[3] = Octanol/water partition coefficient, logP of the compound; format: physicochemical
[4] = Kinetic solubility of compound in 1-Octanol/PBS at pH 7.4 at 200 uM incubated for 2 hrs by shake flask method; format: physicochemical; details: read-out: Kinetic_solubility

Oc1cc(CN2CCC(O)(Cn3ccnc3)CC2)nc2c(Cl)cccc12 gave an XC50 [1] of 882 nM.

OC1(CCCNC2CCN(C3CC3)C(c3ccccc3)C2)CCC1 (stereo unspecified) gave an inhibition of growth at 2 µM [2] of -8%.

In the case of COc1ccc(CN2CCN(c3ccncc3C)CC2)cc1Cn1cccn1, the inhibition of growth at 2 µM [2] is reported as -15%.

COc1c(C2CCN(CCN3CCC(CNC(=O)c4ccc(-c5ccc(C#N)cc5)cc4)CC3)CC2)ccc2c1CCCC2 showed an XC50 [1] of 445 nM.

Work on COc1ccc(-c2cncc(C(=O)NCC3CCN(CCN(C)C)CC3)c2)cc1 yielded a logP ([3]; read-out: logP) of 2.8.

With Cc1c(CN2CCC(O)(Cn3ccnc3)CC2)[nH]c2c(Cl)cccc12 the logP ([3]; read-out: logP) was 3.6.

Cc1cnccc1N1CCCN(Cc2ccccc2OCCN2CCN(C)CC2)CC1 gave a logP ([3]; read-out: logP) of 3.

Compound c1ccc(-c2ccnc(C3CCN(CC45CNCC4C5)CC3)n2)cc1 (stereo unspecified) has a logP ([3]; read-out: logP) of 3.2 and a solubility kinetic at 2 h, 200 µM [4] of 200 µM (≈ 66.9 µg/mL).

For CN1CCC(Oc2ccc(NC(=O)c3cn4ccnc4s3)cn2)CC1, the logP ([3]; read-out: logP) was 2 and the solubility kinetic at 2 h, 200 µM [4] was 200 µM (≈ 71.5 µg/mL).

In the case of O=C(NC1CCN(CCOc2ccc(Cl)cc2)CC1)c1c[nH]c2ccncc2c1=O, the logP [3] is reported as 2.5.

Work on CN1CCN(CCCCNC2CC3CCC(C2)N3Cc2ccccc2)CC1 (stereo unspecified) yielded a logP ([3]; read-out: logP) of 3.1 and a solubility kinetic at 2 h, 200 µM [4] of 200 µM (≈ 74.1 µg/mL).

For CC1(N2CCC2)CCC(NCC2CCN(Cc3ccccc3)C2)CC1 (stereo unspecified), the logP ([3]; read-out: logP) was 3.4.

With CC1CCN(Cc2cccc(C(=O)NCc3ccc(F)c(-c4ccc(CN5CCN[C@H](C)C5)cc4)c3)c2)CC1 the XC50 [1] was 1460 nM.
